This note sets out measurements from patent US5808165A, “β-diketones, processes for making β-diketones and use of β-diketones as stabilizers for PVC” (Rhone-Poulenc Chimie, priority 1992, dated 1998).

Data set [1] can be described thus: Vapor pressure at 180° C. The class given is physicochemical. Here is the method: Study of the physico-chemical properties of the β-diketones
Table 1 gives the vapor pressures at 180° C., which is a typical temperature at which PVC is employed.

The nature of data set [2]: Solubility of dibenzoylmethane in solvents (comparative).
Data set [3] is described as follows: Solubility in "one-pack" additive. Format: physicochemical.
Data set [4] can be described thus: Solubility in dioctyl phthalate, "DOP". The class given is physicochemical.
A short description of data set [5]: Solubility in the principal constituents of an "all in one" additive. Format: physicochemical. Set-up: key: S: Mixture soluble; S1: Mixture soluble but viscous; S2: Mixture soluble but very viscous; I: Mixture insoluble. From the text:
Solubility in the principal constituents of an "all in one" additive
The purpose was to compare the behavior of a mixture based on a composition according to the invention with a mixture based on dibenzoylmethane, in preparing a mixture of stabilizing agents.
The mixtures were weighed in screw-capped bottles.
The bottles were placed in a shaking machine for agitation, for several hours.

A short description of another data set: Physical state. The class given is physicochemical.
Data set [6] is described as follows: Odor during storage / under operating conditions in PVC. As to conditions: during storage of the composition or transformation of the PVC. From the text: In addition, under operating conditions in PVC, the β-diketone compositions according to the present invention can release substantially no odor, in sharp contrast to closely related compounds.
The nature of data set [7]: Acute toxicity LD50 per os in the rat. The note with it: in vivo, po. An excerpt:
Generally, toxicity increases or decreases linearly with the number of carbon atoms in the compound. […] Certain β-diketones, which are not a part of the present invention, have a toxicity which is non-negligible but low. […] In sharp contrast, the toxicity of the β-diketone compounds according to the present invention can be so low as to be not measurable.

Turning to `O=C(CC(=O)c1ccccc1)c1ccccc1` [Dibenzoylmethane, dibenzoylmethane], the “Vapor pressure at 180° C.” value in data set [1] came to 4 mmHg. The Solubility in data set [2] (Decalin, 3° C.) was < 5 g/100 g solution; in data set [2] (Decalin, 25° C.), 5-10 g/100 g solution; in data set [2] (Dioctyl adipate, DOA, 3° C.), 10-20 g/100 g solution; in data set [2] (Dioctyl adipate, DOA, 25° C.), 20-30 g/100 g solution; in data set [2] (Dioctyl adipate, DOA, -15° C.) it was 5-10 g/100 g solution; in data set [2] (Dioctyl phthalate, DOP, 25° C.) it was 10-20 g/100 g solution. Moreover, the Solubility is recorded as 5-10 g/100 g solution in data set [2] (Dioctyl phthalate, DOP, -15° C.); < 10 g/100 g solution in data set [2] (Diphenyl decyl phosphite, "OS 150", 25° C., only 10% and 20% solutions examined); 10-20 g/100 g solution in data set [2] (Epoxidized soy oil, ESO, 3° C., probably high (crystallization was slow)); 10-20 g/100 g solution in data set [2] (Epoxidized soy oil, ESO, 25° C.); < 1 g/100 g solution in data set [2] (Epoxidized soy oil, ESO, -15° C.); 10-20 g/100 g solution in data set [2] (Octyl trimellitate, OTM, 25° C.). In addition, the Solubility in data set [2] (Octyl trimellitate, OTM, -15° C.) is given as 5-10 g/100 g solution; in data set [2] (Phenyl didecyl phosphite, "OS 300", 3° C., only 10% and 20% solutions examined), 10-20 g/100 g solution; in data set [2] (Phenyl didecyl phosphite, "OS 300", 25° C., only 10% and 20% solutions examined) it was 10-20 g/100 g solution; in data set [2] (Phenyl didecyl phosphite, "OS 300", -15° C., only 10% and 20% solutions examined), < 10 g/100 g solution; in data set [2] (Phosphite of butylcarbitol and bisphenol A, 3° C., only 10% and 20% solutions examined) it was 10-20 g/100 g solution; in data set [2] (Phosphite of butylcarbitol and bisphenol A, 25° C., only 10% and 20% solutions examined), 10-20 g/100 g solution. The Solubility entry in data set [2] (Phosphite of butylcarbitol and bisphenol A, -15° C., only 10% and 20% solutions examined) is listed as “about 10 g/100 g solution”; in data set [2] (Tetralin, 3° C.), 10-20 g/100 g solution; in data set [2] (Tetralin, 25° C.) it was 20-30 g/100 g solution; in data set [2] (Tetralin, -15° C.), < 10 g/100 g solution; in data set [2] (Tridecyl phosphite, "OS 330", 25° C., only 10% and 20% solutions examined) it was < 10 g/100 g solution; in data set [2] (Trilauryl phosphite, "OS 360", 25° C., only 10% and 20% solutions examined), < 10 g/100 g solution. For the same compound, the “Solubility in "one-pack" additive” value in data set [3] (3° C.) is on record as 5-9 g/100 g solvent; in data set [3] (23° C.), “about 9 g/100 g solvent”; in data set [3] (-15° C.), < 5 g/100 g solvent. Besides, the “Solubility in dioctyl phthalate, "DOP"” value is reported as “about 10 g/100 g solvent” in data set [4] (3° C.) and 10-20 g/100 g solvent in data set [4] (23° C.). In addition, the Solubility of mixture result in data set [5] (Ba 0, Zn 0, Phosphite 1/2, β-diketone 1/2) is “I”; in data set [5] (Ba 0, Zn 0, Phosphite 1/3, β-diketone 2/3) it was “I”; in data set [5] (Ba 0, Zn 0, Phosphite 2/3, β-diketone 1/3) it was “I”; in data set [5] (Ba 0, Zn 1/2, Phosphite 0, β-diketone 1/2) it was “I”; in data set [5] (Ba 0, Zn 2/3, Phosphite 0, β-diketone 1/3), “I”; in data set [5] (Ba 1/4, Zn 1/4, Phosphite 1/4, β-diketone 1/4), “I”. Besides, the Solubility of mixture result in data set [5] (Ba 1/8, Zn 1/8, Phosphite 3/8, β-diketone 3/8) is on record as “I”; in data set [5] (Ba 1/10, Zn 2/10, Phosphite 5/10, β-diketone 2/10), “I”; in data set [5] (Ba 1/10, Zn 3/10, Phosphite 0, β-diketone 6/10), “I”; in data set [5] (Ba 1/10, Zn 3/10, Phosphite 3/10, β-diketone 3/10) it was “I”. Moreover, the Physical state entry in the data set “Physical state” was “Solid”.
In the case of `CCCCCCC(=O)CC(=O)c1ccccc1` [Heptanoylacetophenone, heptanoyl-benzoylmethane], the “Vapor pressure at 180° C.” value in data set [1] is recorded as 7 mmHg. For the same compound, the “Solubility in "one-pack" additive” value in data set [3] (3° C.), in data set [3] (23° C.) and in data set [3] (-15° C.) was > 18 g/100 g solvent throughout. For the same compound, the “Solubility in dioctyl phthalate, "DOP"” value in data set [4] (3° C.) is > 100 g/100 g solvent; in data set [4] (23° C.) it was > 100 g/100 g solvent; in data set [4] (-15° C.), 50-100 g/100 g solvent. The Physical state result in the data set “Physical state” was “Liquid”.
By LD50 is commonly meant the dose at which mortality reaches 50%. In the case of `CC(C)CC(=O)CC(=O)c1ccccc1` [Isovaleroylacetophenone, isovalerylbenzoylmethane], the “odor when degradation occurs” value in data set [6] is “intolerable odor”. The “Vapor pressure at 180° C.” value in data set [1] was found to be 28 mmHg. For the same compound, the Physical state entry in “Physical state” is reported as “Liquid”. The compound further showed an LD50 in data set [7] of 4880 mg/kg.
For `CCCCCCCC(=O)CC(=O)c1ccccc1` [Octanoylacetophenone, Octanoylbenzoylmethane], the “Vapor pressure at 180° C.” value in data set [1] is on record as 5.6 mmHg. Further, the “Solubility in "one-pack" additive” value in data set [3] (3° C.) is > 18 g/100 g solvent; in data set [3] (23° C.), > 18 g/100 g solvent; in data set [3] (-15° C.), 9-18 g/100 g solvent. The “Solubility in dioctyl phthalate, "DOP"” value was 50-100 g/100 g solvent in data set [4] (3° C.), > 100 g/100 g solvent in data set [4] (23° C.) and 12-25 g/100 g solvent in data set [4] (-15° C.). The Physical state entry in the data set “Physical state” is “Solid”.
Turning to Isodecanoylacetophenone, the “Vapor pressure at 180° C.” value in data set [1] amounted to 2 mmHg. Also, the Physical state result in “Physical state” was “Liquid”.
The like results for Isononanoylacetophenone were, in that order, 4 mmHg and “Liquid”.
For the compound “Isooctanoylbenzoylmethane [Isooctanoylacetophenone]”, the “Vapor pressure at 180° C.” value in data set [1] was 6 mmHg. Also, in the data set “Physical state”, the Physical state entry is recorded as “Liquid”.
Consider Isoundecanoylacetophenone, for which the “Vapor pressure at 180° C.” value in data set [1] is listed as 1.5 mmHg. Moreover, the Physical state entry in the data set “Physical state” is on record as “Liquid”.
